Source: US20260085315A1, “POLYNUCLEOTIDE COMPOSITIONS AND METHODS FOR TREATMENT OF CANCER” (APTAH BIO, INC., priority 2023, published 2026)
d = 2'-deoxy (DNA); m = 2'-O-methyl

Assays:
[1] = test system: U87MG (Human Glioblastoma); test: MTT viability assay 48/96/144 h (Example 5); assay type: cell-based; conditions: 0.003-30 μM tested
Description: In vitro effects of APT20TTMG on viability and proliferation of human cancer cell line U87MG (Human Glioblastoma) were also evaluated by MTT and BrdU assays, respectively. Cells were treated with APT20TTMG and Reference Items in technical triplicates (Experiment was done in 3 different sets) at various concentrations for 48 h, 96 h, and 144 h. APT20TTMG and Reference Items were read after every 48 h.
As shown in FIGS. 32-33, A MTT assay (FIG. 32) was also performed with another five different concentrations of APT20TTMG (0.003, 0.03, 0.3, 3, and 30 μM) and at 48, 96, and 144 hours of incubation. […] Finally, to confirm whether APT20TTMG is a cytotoxic or cytostatic molecule considering its ability to reduce cellular viability in certain concentrations, a cell proliferation assay (FIG. 33) with the U87-MG cell line was also performed in the same conditions as the MTT assay. […] Cells were plated and treated with 5 different concentrations (0.003, 0.03, 0.3, 3, and 30 μM). BrdU assay was performed after 48, 96, or 144 hours of incubation. Data are plotted as a percentage (%) of cell viability compared to the negative control group (vehicle). Results are expressed as Mean±SEM of three independent experiments performed in three technical replicates. […]

[2] = test system: PC-3 cell line; test: MTT cytotoxicity assay on human cancer cell panel (Example 2); assay type: cell-based; conditions: 24, 48, 72 hours; 0.03-30 μM; 1% FBS
Description: Cell lines were maintained in growth medium with 10% of Fetal Bovine Serum (FBS) until the time of the experiments. Cells were sub-cultured by trypsinization and splitting the cell suspension into fresh flasks and supplementing with fresh culture medium. To perform the assay, the cells were trypsinized, neutralized with complete medium (10% FBS), centrifuged, counted with assistance of a hemocytometer, and plated with the respective media with 10% FBS. Cell lines were plated at a density of 1×10^4 cells per well, other than the SH-SY5Y cell line which was plated at a density of 2.5×10^4. The preparation of the different experimental groups was done with 0.1% FBS (U87MG, MCF-7, SH-SY5Y and 786-O) and 1% FBS (PC-3). The untreated cells were used as negative control (medium only). After 24, 48, 72 and 96 hours of incubation, the effect of ASMO1 and controls on cytotoxicity of cells was determined by MTT assay.
Briefly, plates were taken out and 20 μl of 5 mg/ml of MTT 3-(4,5-dimethythiazol-2-yl)-2,5-diphenyl tetrazolium bromide solution was added to all the wells. […] The absorbance of each well was then read at 540 nm using Synergy HT microplate reader.
Cells were plated and treated with 7 different concentrations (0.03, 0.1, 0.3, 1, 3, 10 and 30 μM) of APT20TTMG with medium (1% FBS). MTT assay was performed in 3 distinct times and graphs are represented as absorbance (540 nm). […]

[3] = test system: U87-MG cell line; test: Distribution of cell cycle phases; assay type: cell-based, Human; conditions: 0.25 μM, 48 hours
Description: The methodologies for this Example are the same as shown in Example 4.
Cells were plated and treated with 3 different concentrations (0.25, 0.5, and 1 μM) of APT20TTMG and cell cycle phases were evaluated after 48 hours of incubation. Cell proliferation is regulated by cell cycle progression. Phases: Sub/G1: non-proliferative state (quiescence); G1/G0: cell growth; S: DNA replication; G2/M: DNA segregation and mitosis. Results were expressed as Mean Standard Error of three independent experiments.

[4] = test system: TAU protein; test: Tau quantification by Western blot in SK-N-SH; assay type: cell-based; conditions: 0.5 μM
Description: FIG. 27A-27B illustrates MAPT expression and tau quantification obtained after 24, 48, 96 and 144 hours of incubation with ASMO1 (0.5 μM) in neuroblastoma cell line.
Cells were rinsed once with ice-cold PBS, collected, and pelleted by centrifugation at 2500 g for 5 minutes at 4° C. Each sample was re-suspended and lysed in 50 μl ice-cold radioimmunoprecipitation assay (RIPA) buffer (Thermo Fisher Scientific, USA) containing EDTA-free Halt protease and phosphatase inhibitor cocktail mixture (Thermo Fisher Scientific, USA) for 20 min at 4° C. To increase protein yields, each sample was homogenized using a 29 G×13 mm needle and syringe. Cell lysates were clarified by centrifugation at 17,000 g for 15 minutes at 4° C. Supernatants were collected and total protein concentration was determined using the BCA protein assay kit (Thermo Fisher Scientific, USA) according to the manufacturer's instructions. 15 μg of total protein in cell lysates were denatured in NuPAGE LDS sample buffer (Thermo Fisher Scientific, USA) with NuPAGE sample reducing agent (DTT; Thermo Fisher Scientific, USA) and boiled at 90° C. for 5 minutes. […] Densitometry using Image J (v1.48k; NIH) was performed and all quantification was standardized against vinculin levels.

In the case of “APT20TTMG: engineered polynucleotide ASMO1, 24 nt, SEQ ID NO: 3 gtccactaacctttcaggccagcg; targeting moieties 5′-GTCCA-3′ and 5′-CG-3′, U1 snRNP recruiting moiety (GTCCACTAACCTTTCAGGCCAGCG; sugars from the 5' end m5 d14 m5, all phosphorothioate, methylation of C and T or U not given here)”, the “concentrations observed to reduce cell viability (MTT)” value ([1]; 96 and 144 hours) is reported as at least 0.3 µM, the “concentration observed to reduce cell viability (MTT)” value ([1]; 48 hours) is reported as 30 µM and the “cytotoxic or cytostatic effect (MTT)” value [2] is reported as “does not exert a cytotoxic or cytostatic effect”. The “cells in G1/G0 phase” value ([3]; p=0.0036) was “reduction in retention”, the “cells in G2/M phase” value ([3]; p=0.0425) was “increase in retention” and the “reduction of tau protein quantification” value ([4]; first of 'the two highest concentrations' as printed (parallel to 96 h)) was 40±13.3%. For the same substance, the “reduction of tau protein quantification” value ([4]; second of 'the two highest concentrations' as printed (parallel to 144 h)) was 46±14.3%.
